In data set [1] the test system is EBOV minigenome (WT NP). Put plainly: in vitro. The note with it: hamster.
Data set [2] relates to EBOV minigenome (WT NP). Put plainly: microbe, parasite or virus in culture. The note with it: Zaire ebolavirus; for EC50: BSR-T7, read-out: EC50 (reduction in luciferase, EBOV minigenome).
Data set [3] can be described thus: in vitro. The note with it: hamster, CC50 (reduction in cell viability, MTT).
Data set [4] deals with T7FFLuc control (T7 RNA polymerase driven firefly luciferase). Put plainly: cells. The class given is cell-based. The note with it: BSR-T7, read-out: EC50 (T7FFLuc control).
For data set [5] the test system is unchanged. Put plainly: cells. The note with it: read-out: EC50 (T7FFLuc control). The class given is cell-based.
Data set [6] has as its system EBOV minigenome (WT NP). Put plainly: microbe, parasite or virus in culture. The note with it: Zaire ebolavirus, read-out: EC50 (reduction in luciferase, EBOV minigenome). The class given is cell-based, Ebola virus (EBOV), Makona strain.
Another data set concerns Huh7-Lunet-T7 cells. The note with it: human.
The nature of data set [7]: in vitro. The note with it: human, CC50 (reduction in cell viability, MTT).
For data set [8], the system named is Bunyamwera virus (BUNV) minigenome. In words: microbe, parasite or virus in culture. The class given is cell-based. The note with it: BSR-T7, read-out: EC50 (BUNV minigenome control).
The subject of the next data set is influenza NP. The note with it: cited from earlier work.

Consider four compounds from PMC6371959 (Antiviral Research, 2018).

The EC50 is the concentration at which the effect is half-maximal. One may read the CC50 as the concentration giving 50% cytotoxicity. High values mean better tolerance by the cells, low ones harm at low concentration. One may read the EC90 as the concentration needed for an effect of 90%. As a reminder, the inhibition is the change of the read-out against control, counted positive when it falls.

Read-outs that look alike come from different tables or passages of the source.

As to `O=C(c1cccc(/C=C2\SC(=O)N(Cc3cccc(F)c3)C2=O)c1)N1CCN(c2ccccn2)CC1` [MCCB4-8], the selectivity ratio with EBOV minigenome (WT NP) [1] was 4. The EC50 in the data set with EBOV minigenome (WT NP) [2] is 11.2 µM; in [4], more than 100 µM. For the same compound, it took 46.5 µM to reach half-maximal cytotoxicity in the data set “in vitro [3]” (CC50).
Take `O=C(c1cccc(/C=C2\SC(=O)N(Cc3ccc(F)cc3)C2=O)c1)N1CCN(c2ccccn2)CC1` [MCCB4-12]: the selectivity ratio in the data set with EBOV minigenome (WT NP) [1] was 6.5. Also, the results for the EC50 (in the data set on EBOV minigenome (WT NP) [2]; in [4]) were 8.8 µM and 49.5 µM, respectively. Besides, the CC50 in the data set “in vitro [3]” is 64.8 µM.
Consider `O=C(c1cccc(/C=C2\SC(=O)N(Cc3ccccc3)C2=O)c1)N1CCN(c2ccccn2)CC1` [MCCB4], for which the EC50 was 30.8 µM in data set [5]; 1.5 µM in the data set on EBOV minigenome (WT NP) [6]; 4.8 µM in the data set on EBOV minigenome (WT NP) [2]; more than 100 µM in data set [8]; more than 100 µM in data set [4]. For the same compound, the CC50 with Huh7-Lunet-T7 cells was 43.2 µM; in “in vitro [7]” it was 48.8 µM; in the data set “in vitro [3]”, more than 100 µM. Also, the EC90 in the data set with EBOV minigenome (WT NP) [2] (BSR-T7, read-out: EC90 (EBOV minigenome)) worked out at 49 µM. Moreover, the inhibition at 4.8 µM in the data set with EBOV minigenome (WT NP) [2] (BSR-T7, read-out: inhibition of luciferase (time course)) was determined as 50%.
Consider `Cc1onc(-c2ccccc2)c1C(=O)N1CCN(c2ccc([N+](=O)[O-])cc2Cl)CC1` [Nucleozin], for which the “EC50 (influenza, NP aggregation)” value in the data set with influenza NP was “nM range”.
